# Test results: PMC11788822, “Uncovering the potent antimicrobial activity of squaramide based anionophores – chloride transport and membrane disruption” (Chemical Science, 2025)
# Columns and labels:
# [1] = 1H NMR titration with TBACl, Cl− binding; details: association constant towards Cl−, compound 2.5 mM, 95% DMSO-d6, 1:1 binding model (Bindfit), errors below 10%
# Protocol: To verify if 1–6 formed host–guest complexes with Cl^− in solution, ^1H NMR titrations of each compound (2.5 mM) with TBACl were carried out in DMSO-d6. Increasing equivalents of Cl^− were incrementally added, with spectral information obtained upon addition of each molar equivalent of Cl^−. […] Taking 1 as an example (Fig. 2), upon addition of sequential aliquots of Cl^− there is a clear downfield shift of both squaramide NHs, with minor contributions to the binding cleft derived from the ortho-aryl protons of the aniline of 1. The binding data from each titration was fitted to a 1 : 1 binding model using the Bindfit[36] open access software, and the results are tabulated below (Table 1), alongside the respective Hammett constant for the relevant substitution pattern.[37] […] This aligns with previously reported receptors,[38] where compounds containing CF3 substituents in particular are known to have increased anion binding affinity as well as transport ability.[39]
# S. aureus cells = assay: Propidium iodide membrane integrity assay; type: cell-based, Staphylococcus aureus; details: for propidium iodide fluorescence vs basal (emission around 615 nm): two hours of treatment, various concentrations
# From the text: To study whether compounds 1, 2, and 4 do indeed accumulate in the membrane, and yield a depolarising effect, or compromise its integrity we utilised propidium iodide (PI), a red-emissive (λmax(em) = 617 nm) cell-impermeable fluorophore. PI undergoes a fluorescence increase upon internalisation and DNA intercalation, and thus under ordinary circumstances PI fluorescence is quenched, but if membrane integrity is compromised, a fluorescence “turn-on” occurs. After two hours of treatment with 1, 2, and 4, PI fluorescence was compared to basal fluorescence from the fluorophore. […] This clear membrane depolarising effect was less obvious for 4, and follows the trend of the observed transport, and toxicity results. However, it is of note that each compound can effectively promote an influx of PI through membrane depolarisation.
# To further investigate the rate of this phenomenon, PI fluorescence was monitored as a function of time, upon treatment of S. aureus with 1 at a concentration of 50 μM (Fig. 4B).
# 1 mL aliquots of S. aureus cultures brought to early stationary phase overnight were brought to an OD600 = 0.2 and 100 µL of this suspension was added to 96 well plates, whereafter 100 µL of PBS containing; no compound (- control), or compound (2x desired concentration) was added to the suspension. The resultant mixture was incubated at 37 °C for 2 hr whereafter fluorescence intensity from PI (DNA bound form) was quanitified (λ exc/em = 535/615 nm) using a Clariostar plate reader. In the case of time course experiments, Measurement cycles were set for two hours, following addition of the respective compound (T0). Fluorescence was subsequently plotted as F/F0. […]
# Statistical analysis of biological data: All biological experiments were carried out in triplicate, making use of cells of differing origins, on three independent occasions. With experiments concerning the use of 96-well plates, all experiments were carried out as three biological replicates of eight technical replicates. All data is presented as the mean + SEM of each replicate, unless specified otherwise. All statistical analysis and significance determination was carried out using the Graphpad Prism 8.0.1 software package.
# S. aureus = assay: DNA release luminescence assay with Ru(phen)2(dppz)Cl2; type: cell-based, Staphylococcus aureus; details: 100 μM, 1 h, vs untreated control
# Protocol: In addition to assays monitoring the uptake of PI, luminescence assays to monitor the release of cellular components such as DNA/RNA were also undertaken. Using Ru(phen)2(dppz)Cl2, which acts as a highly sensitive, “off-to-on” emissive probe for nucleic acids (NA),[49–51] we assessed the levels of NA release from cells upon treatment with 1, 2, and 4 (100 μM) by comparing emission intensity of the complex in the absence of nucleic acids, to untreated controls, and treated samples (Fig. 4C). When Ru(phen)2(dppz)Cl2 was added to sterile nutrient broth, which lacks nucleic acids, emission from the ^3MLCT band (ca. 620 nm) is highly quenched, however, when added to culture supernatant in the absence of treatment with 1, 2, or 4 we see a large increase in ^3MLCT derived luminescence indicating the presence of nucleic acids in the solution. This initial luminescence increase is unsurprising, as S. aureus is known to release DNA under active growth conditions, in the form of eDNA,[52] which acts as a chemical messenger for microbial species.[53] […] This additional increase in luminescence indicates a heightened level of extracellular NA and may be another indication of membrane disruption. […] Indeed, a significant increase in luminescence would not be expected, as the release of large architectures such as those observed for nucleic acids is slow, due to the bulk of the biomolecules.
# 1 mL aliquots of S. aureus cultures brought to early stationary phase overnight were brought to an OD600 = 0.2 and 100 µL of this suspension was added to 96 well plates, whereafter 100 µL of PBS containing; no compound (- control), or compound (2x desired concentration) was added to the suspension. The resultant mixture was incubated at 37 °C for 2 hr whereafter fluorescence intensity from PI (DNA bound form) was quanitified (λ exc/em = 535/615 nm) using a Clariostar plate reader. In the case of time course experiments, Measurement cycles were set for two hours, following addition of the respective compound (T0). Fluorescence was subsequently plotted as F/F0.
# DNA release luminescence assay […]
Structure (SMILES),K a [1] [M⁻¹],"propidium iodide fluorescence as a function of time (S. aureus cells; 50 μM, over two hours)",propidium iodide fluorescence vs basal (emission around 615 nm) (S. aureus cells),Ru(phen)2(dppz)Cl2 luminescence in culture supernatant (nucleic acid release) (S. aureus)
O=c1c(Nc2cc(C(F)(F)F)cc(C(F)(F)F)c2)c(NC23CC4CC(CC(C4)C2)C3)c1=O [Compound 1],235,increase in the fluorescence of PI,greatly increased,further increased
O=c1c(Nc2ccc(Cl)c(Cl)c2)c(NC23CC4CC(CC(C4)C2)C3)c1=O [Compound 2],263,,greatly increased,further increased
O=c1c(Nc2ccc([N+](=O)[O-])cc2)c(NC23CC4CC(CC(C4)C2)C3)c1=O [Compound 4],202,,less obvious,further increased
